Patent US20080227732A1, “Treatment and Control of Severe Infections Including Cystic Fibrosis” (VENUS REMEDIES LIMITED, priority 2005, published 2008)

Tests used:
Klebsiella = assay: Bacterial susceptibility test, disc diffusion on Müeller-Hinton Agar; format: cell-based, Klebsiella pneumoniae; conditions: Concentration 2.18 g
Protocol: (§1) This test was performed by disc diffusion test for ceftazidime and tobramycin on Müeller-Hinton Agar medium purchased from Hi Media. The medium was prepared and used as per manufacturer's instructions. Ceftazidime alone, Tobramycin alone and the combination of Ceftazidime and Tobramycin, on different micro-organisms was taken. […] For each concentration the three zones were observed i.e for combination, Ceftazidime alone and Tobramycin alone and tested for efficacy against various types of micro-organisms.

E. coli = assay: as above; format: cell-based; conditions: for Zone size: Concentration 1.12 g; for zone of inhibition: Escherichia coli, Concentration 560 mg
Protocol: as §1

MRSA = assay: as above; format: cell-based; conditions: for zone of inhibition: Staphylococcus aureus, MRSA, Concentration 560 mg
Protocol: as §1

C. albicanus = assay: as above; format: cell-based; conditions: Concentration 2.18 g
Protocol: as §1

P. aurignosa = assay: as above; format: cell-based; conditions: for zone of inhibition: Concentration 560 mg; for Zone size: Concentration 1.12 g
Protocol: as §1

Stapylococcus = assay: as above; format: cell-based, Staphylococcus (MSSA); conditions: Concentration 2.18 g
Protocol: as §1

[1] = febrile children with neutropenia, 5 to 10 days of therapy; cited from earlier work
[2] = cited from earlier work
[3] = High: C 2.0, T 0.18, I 2.18 mg/ml
[4] = Highest: C 20.0, T 1.8, I 21.8 mg/ml
[5] = Low: C 0.2, T 0.018, I 0.218 mg/ml
[6] = High: C 1.0, T 0.12, I 1.12 mg/ml
[7] = Highest: C 10.0, T 1.2, I 11.2 mg/ml
[8] = Low: C 0.1, T 0.01, I 0.112 mg/ml
[9] = Lowest: C 0.01, T 0.001, I 0.011 mg/ml
[10] = High: C 0.5, T 0.06, I 0.56 mg/ml
[11] = Highest: C 5.0, T 0.6, I 5.6 mg/ml
[12] = Low: C 0.05, T 0.006, I 0.056 mg/ml
[13] = Lowest: C 0.005, T 0.0006, I 0.0056 mg/ml
[14] = Concentration 1.12 g, High: C 1.0, T 0.12, I 1.12 mg/ml
[15] = Concentration 1.12 g, Highest: C 10.0, T 1.2, I 11.2 mg/ml
[16] = Concentration 1.12 g, Low: C 0.1, T 0.01, I 0.112 mg/ml
[17] = Concentration 1.12 g, Lowest: C 0.01, T 0.001, I 0.011 mg/ml
[18] = Concentration 2.18 g, High: C 2.0, T 0.18, I 2.18 mg/ml
[19] = Concentration 2.18 g, Highest: C 20.0, T 1.8, I 21.8 mg/ml
[20] = Lowest: C 0.02, T 0.0018, I 0.0218 mg/ml

Compound | Zone size (Klebsiella; [3]) [mm] | Zone size (Klebsiella; [4]) [mm] | Zone size (Klebsiella; [5]) [mm] | Zone size (E. coli; [6]) [mm] | Zone size (E. coli; [7]) [mm] | Zone size (E. coli; [8]) [mm] | Zone size (E. coli; [9]) [mm] | zone of inhibition (E. coli; [10]) [mm] | zone of inhibition (E. coli; [11]) [mm] | zone of inhibition (E. coli; [12]) [mm] | zone of inhibition (E. coli; [13]) [mm] | Zone size (MRSA; [14]) [mm] | Zone size (MRSA; [15]) [mm] | Zone size (MRSA; [16]) [mm] | Zone size (MRSA; [17]) [mm] | Zone size (MRSA; [18]) [mm] | Zone size (MRSA; [19]) [mm] | zone of inhibition (MRSA; [10]) [mm] | zone of inhibition (MRSA; [11]) [mm] | zone of inhibition (MRSA; [13]) [mm] | also measured
NC[C@H]1O[C@H](O[C@H]2[C@H](O)[C@@H](O[C@H]3O[C@H](CO)[C@@H](O)[C@H](N)[C@H]3O)[C@H](N)C[C@@H]2N)[C@H](N)C[C@@H]1O [T, Tobramycin] | 32.07 | 38.71 | 31.50 | 25.02 | 30.30 | 22.16 | 14.35 | 25 | 30.3 | 22.2 | 14.3 | 22.45 | 33.22 | 10.24 | 9.89 | 14.61 | 17.13 | 23.9 | 32.4 | 9.46 | zone of inhibition (MRSA; [12]): 11.7 mm; Zone size (C. albicanus; [3]): 26.45 mm; Zone size (C. albicanus; [4]): 35.47 mm; Zone size (C. albicanus; [5]): 15.65 mm; Zone size (C. albicanus; [20]): 0 mm; zone of inhibition (P. aurignosa; [10]): 21.2 mm; zone of inhibition (P. aurignosa; [11]): 32.1 mm; zone of inhibition (P. aurignosa; [12]): 16.7 mm; zone of inhibition (P. aurignosa; [13]): 10.9 mm; Zone size (P. aurignosa; [6]): 23.02 mm; Zone size (P. aurignosa; [7]): 30.31 mm; Zone size (P. aurignosa; [8]): 19.16 mm; Zone size (P. aurignosa; [9]): 11.35 mm; Zone size (Stapylococcus; [3]): 27.49 mm; Zone size (Stapylococcus; [4]): 36.96 mm; Zone size (Stapylococcus; [5]): 16.68 mm
CC(C)(O/N=C(\C(=O)N[C@@H]1C(=O)N2C(C(=O)[O-])=C(C[n+]3ccccc3)CS[C@H]12)c1csc(N)n1)C(=O)O [C, Ceftazidime] | 47.47 | 51.22 | 46.30 | 42.10 | 47.34 | 35.49 | 33.34 | 42.1 | 47.3 | 35.5 | 33.3 | 12.53 | 22.39 | 0 | 0 | 27.32 | 44.93 | 12.9 | 21.2 | 0 | patients clinically cured at the end of therapy [1]: 67%; overall response rate in septicaemia ([2]; cancer patients): 75%; overall response rate ([2]; episodes of infection in cancer patients): 60%; Zone size (C. albicanus; [3]): 31.25 mm; Zone size (C. albicanus; [4]): 37.55 mm; Zone size (C. albicanus; [5]): 18.37 mm; Zone size (C. albicanus; [20]): 12.90 mm; zone of inhibition (P. aurignosa; [10]): 36 mm; zone of inhibition (P. aurignosa; [11]): 41.8 mm; zone of inhibition (P. aurignosa; [12]): 24.5 mm; zone of inhibition (P. aurignosa; [13]): 14.4 mm; Zone size (P. aurignosa; [6]): 44.10 mm; Zone size (P. aurignosa; [7]): 48.34 mm; Zone size (P. aurignosa; [8]): 32.48 mm; Zone size (P. aurignosa; [9]): 29.34 mm; Zone size (Stapylococcus; [3]): 35.76 mm; Zone size (Stapylococcus; [4]): 50.93 mm; Zone size (Stapylococcus; [5]): 22.45 mm
